“Also recorded” adds a separate entry of the source. Read-outs that look alike come from different tables or passages of the source. One block for each molecule: values may come before it.
How the values were obtained:
[1] = test system: HIV; conditions: cited from earlier work
[2] = cited from earlier work
[3] = cited from earlier work; remark: listed apart in the source
[4] = Critical water activity for relative form stability: ethanol slurries at 25° C., XRPD; type: physicochemical; conditions: for Final Form by XRPD: ethanol slurry 25° C.; for Water activity levels in ethanol at which the form is the stable form: EtOH slurries, 25° C.
Description: For robust isolation of desired squalamine phosphate crystal form, critical water activity in EtOH has been investigated in terms of the relative stability of ENT-01 Forms 1 and 2. The procedure is detailed below.
Nine samples of each Form 1 and Form 2 separately (˜25 mg each) were prepared in scintillation vials. To each vial ½ mL of ethanol with water activity levels from 0.1 to 0.9 were added and the vials were let to condition in a shaker at 25° C. for 2-3 days. Similarly, six mixed samples of Form 1 and 2 were prepared and slurry conditioned at water activity levels of 0.1 to 0.6 in ethanol at 25° C. The wet cakes of each slurry were analyzed by XRPD.
The slurries post conditioning were analyzed by XRPD. […] The XRPD pattern matches that of Form 2.

[5] = Form stability: low (27% RH) and high (70% RH) humidity conditioning, XRPD; type: physicochemical; conditions: 21° C.
Description: One sample each of Form 1 and Form 2 on XRPD plates (˜10 mg each) were exposed to 21° C. 27% RH and 21° C. 70% RH for one and two days, respectively. The four samples were analyzed by XRPD (FIG. 12 and FIG. 13).

[6] = Form stability: dry ethanol slurry at 30° C., XRPD; type: physicochemical; conditions: Slurry in dry ethanol at 30° C., overnight
Description: A small portion of Form 1 (˜50 mg) and a small portion of Form 2 (˜50 mg) were prepared in scintillation vials and equal volumes of sieve dried ethanol was added, the slurries were conditioned overnight in a shaker at 30° C. The wet slurries were analyzed by XRPD (FIG. 14).

[7] = Form stability: water-acetone and water-ethanol wash, then 40° C. drying, XRPD; type: physicochemical; conditions: overnight
Description: Two small portions of Form 2 (˜100 mg each) were prepared in sample vials. The first one was slurried in water briefly followed by filtration and acetone wash. The second one was slurried in water briefly, filtered and washed with ethanol. Both samples were then oven dried at 40° C. overnight and analyzed by XRPD (FIG. 11).

[8] = dose levels 6 to 700 mg/m(2)/day
[9] = patients, 500 mg/m(2)/day, 5-day continuous i.v. infusion

Molecule: Nc1nc(=O)n([C@@H]2CS[C@H](CO)O2)cc1F [COVIRACIL, emtricitabine]
greater activity in vitro than lamivudine (3TC) ([1]; in vitro): 3-to 10 fold

Molecule: CC[C@H]1C(=O)Nc2ccc(F)cc2N1C(=O)OC(C)C [GW420867X]
greater activity than HBY097 [1]: 25 fold

Molecule: C[C@H](Sc1nc(N)cc(Cl)n1)c1cc2ccoc2cn1 [PNU-142721]
greater activity than its predecessor delavirdine [1]: 20- to 50 fold

Molecule: CC(C)[C@@H](CC[C@@H](C)[C@H]1CC[C@H]2[C@@H]3[C@H](O)C[C@H]4C[C@@H](NCCCNCCCCN)CC[C@]4(C)[C@H]3CC[C@]12C)OS(=O)(=O)O [squalamine, 3 beta-N-1-(N-[3-(4-aminobutyl)]-1,3-diaminopropane)-7 alpha,24 zeta-dihydroxy-5 alpha-cholestane 24-sulfate]
dose-limiting toxicity ([2]; 500 mg/m(2)/day): one of seven patients experienced dose-limiting grade 4 hyperbilirubinemia and grade 3 neurosensory changes
tolerability ([2]; 500 mg/m(2)/day): well tolerated
dose-limiting toxicity ([2]; 700 mg/m(2)/day): two of three patients developed grade 4 hyperbilirubinemia
pharmacokinetics versus dose [2, 8]: dose-proportional
principal dose-limiting toxicity [2, 8]: Hepatotoxicity
clearance, mean (percentage coefficient of variation) [2, 9]: 2.67 liters/h/m(2)
half-life, mean (percentage coefficient of variation) [2, 9]: 9.46 h
steady-state concentrations, mean (percentage coefficient of variation) [2, 9]: 20.08 micro g/ml
volume of distribution, mean (percentage coefficient of variation) [2, 9]: 36.84 liters/m(2)
dose-limiting toxicity (grade 3/4 arthralgia, myalgia, neutropenia) ([3]; 400 mg/m(2)/day with paclitaxel and carboplatin): two of three patients
dose selected as the Phase II dose on the basis of safety and toxicity ([3]; combination regimen with paclitaxel and carboplatin): 300 mg/m(2)/day
tolerability of the combination ([3]; continuously daily for 5 days, with paclitaxel and carboplatin on day 1): well tolerated

Molecule: squalamine phosphate [Form 2]
Final Form by XRPD ([7]; Water-acetone wash + 40° C. dry): generates Form 1; also recorded: converted to Form 1
Final Form by XRPD ([7]; Water-ethanol wash + 40° C. dry): generates Form 1; also recorded: converted to Form 1
Final Form by XRPD ([5]; 27% RH, overnight (one day)): Form 1 was also obtained; also recorded: converted to Form 1
Final Form by XRPD ([5]; 70% RH, two nights): remained the same as their respective starting forms; also recorded: Form 2
Final Form by XRPD [6]: converted to Form 1
Water activity levels in ethanol at which the form is the stable form [4]: ≥ 0.6 Aw
Form after slurry conditioning, by XRPD ([4]; slurries in Ethanol at water activity levels of 0.1 to 0.3 at 25° C., three days): converted to Form 1
Form after slurry conditioning, by XRPD ([4]; slurries in Ethanol at water activity levels of 0.4 to 0.9 at 25° C., three days): stayed the same Form 2

The next lines start with results.

Final Form by XRPD ([4]; mixed forms, Aw 0.099, water volume fraction 0.013, seven days): Form 1
Final Form by XRPD ([4]; mixed forms, Aw 0.205, water volume fraction 0.030, seven days): Form 1
Final Form by XRPD ([4]; mixed forms, Aw 0.298, water volume fraction 0.048, seven days): Form 1
Final Form by XRPD ([4]; mixed forms, Aw 0.398, water volume fraction 0.073, seven days): Form 1
Final Form by XRPD ([4]; mixed forms, Aw 0.502, water volume fraction 0.104, seven days): Form 1
Final Form by XRPD ([4]; mixed forms, Aw 0.605 (0.6), water volume fraction 0.145, seven days): Form 2
Final Form by XRPD ([4]; mixed forms, Aw 0.605 (0.6), water volume fraction 0.145, seven days, listed as Form 1 and 2): converted to Form 2
Form after slurry conditioning, by XRPD ([4]; mixed slurries in Ethanol at water activity levels of 0.1 to 0.5 Aw at 25° C., seven days): converted to Form 1
Molecule: squalamine phosphate [Form 1 + 2]

Final Form by XRPD ([4]; Aw 0.000, water volume fraction 0.000, three days): Form 1
Final Form by XRPD ([4]; Aw 0.099, water volume fraction 0.013, three days): Form 1
Final Form by XRPD ([4]; Aw 0.205, water volume fraction 0.030, three days): Form 1
Final Form by XRPD ([4]; Aw 0.298, water volume fraction 0.048, three days): Form 1
Final Form by XRPD ([4]; Aw 0.398, water volume fraction 0.073, three days): Form 1 + Form 2
Final Form by XRPD ([4]; Aw 0.502, water volume fraction 0.104, three days): Form 1 + Form 2
Final Form by XRPD ([4]; Aw 0.700, water volume fraction 0.198, three days): Form 2
Final Form by XRPD ([4]; Aw 0.802, water volume fraction 0.296, three days): Form 2
Final Form by XRPD ([4]; Aw 0.900, water volume fraction 0.550, three days): Form 2
Molecule: squalamine phosphate [Form 1 + Form 2]

Final Form by XRPD [6]: Form 1
Water activity levels in ethanol at which the form is the stable form [4]: ≤ 0.5 Aw
Form after slurry conditioning, by XRPD ([4]; slurries in Ethanol at water activity levels of 0.1 to 0.6 at 25° C., three days): stayed the same Form
Form after slurry conditioning, by XRPD ([4]; slurries in Ethanol at water activity levels of 0.7 to 0.9 at 25° C., three days): converted to Form 2
Molecule: squalamine phosphate [Form 1]
Final Form by XRPD ([5]; 27% RH, overnight (one day)): remained the same form; also recorded: Form 1
Final Form by XRPD ([5]; 70% RH, two nights): remained the same as their respective starting forms; also recorded: Form 1

— patent publication US11066438B2, “Squalamine solid forms and methods of making the same” (Enterin, Inc., priority 2017, dated 2021)
